Several values for one entry are separate records, joined by “and”; a condition that tells them apart may be missing. Identical values can stand only once. Like-named read-outs stand apart in the source and are kept apart here.

The target of data set [1] is GSK-3α/β. Put plainly: GSK-3α/β kinase assay. Particulars: Table 4; 15 μM ATP; read-out: IC50 GSK3α/β. The data set is classed as biochemical, porcine. The protocol:
(§1) The twenty-two (5Z) 5-arylidene-2-thioxo-1,3-thiazolidin-4-ones 3a–v and the twenty-four (5Z) 2-amino-5-arylidene-1,3-thiazolidin-4(5H)-ones 5a–x were evaluated against four different and representative in vitro kinase assays DYRK1A (dual specificity tyrosine phosphorylation regulated kinase), CK1 δ/e (caseine kinase 1), CDK5/p25 (cyclin dependant kinase), and GSK3 α/β (glycogen synthase kinase 3) to evaluate their inhibition potency. […] All the compounds were initially tested at a 10 μM concentration.
(§2) After 30-min incubation at 30 °C, the reaction was stopped by harvesting, using a FilterMate harvester (Packard), onto P81 phospho-cellulose papers (GE Healthcare, Chicago, IL, USA) which were washed in 1% phosphoric acid. Scintillation fluid was added and the radioactivity measured in a Packard counter. Blank values were subtracted and activities calculated as pmoles of phosphate incorporated for the 30-min incubation. The activities were expressed in % of the maximal activity, i.e., in the absence of inhibitors. Controls were performed with appropriate dilutions of DMSO.
GSK-3α/β (porcine brain, native) was assayed, as described for CDK5/p25 but in Buffer A and using a GSK-3 specific substrate (GS-1: […]pEDEEE) (pS stands for phosphorylated serine). GS-1 was synthesized by Millegen (Labege, France).

The target in data set [2] is Casein kinase 1 (CK1δ/ε). In words: CK1δ/ε kinase assay. The data set is classed as biochemical, porcine. The conditions noted are these: Table 4; 15 μM ATP; read-out: IC50 CK1. Here is the method: as §1, §2
Casein kinase 1 (CK1δ/ε) (porcine brain, native) was assayed with 0.67 µg of CKS peptide ([…]pSAYSITA), a CK1 specific substrate obtained from Millegen (Labege, France).

Another data set has as its system MDA-MB231. In words: Cell survival assay, MDA-MB231. The data set is classed as cell-based. Particulars: Homo sapiens, MDA-MB-231; 48 h exposure, nuclei count; read-out: Cell Lines IC50 MDA-MB231. The protocol:
(§3) Skin diploid fibroblastic cells were provided by BIOPREDIC International Company (Rennes, France). […] Cells were grown according to ECACC recommendations. The toxicity test of the compounds on these cells was as follows: 2 × 10^3 cells for HCT-116 cells or 4 × 10^3 for the other cells were seeded in 96-multi-well plates in triplicate and left for 24 h for attachment, spreading and growing. Then, cells were exposed for 48 h to increasing concentrations of the compounds, ranging from […], in a final volume of 120 μL of culture medium. […] The IC50 were graphically determined.

The subject of a further data set is Huh7 D12. Put plainly: Cell survival assay, Huh7 D12. The data set is classed as cell-based. The conditions noted are these: Huh-7D12; 48 h exposure, nuclei count; read-out: Cell Lines IC50 Huh7 D12. Here is the method: as §3
Another data set has as its system PC3. Put plainly: Cell survival assay, PC3. Format: cell-based. The conditions noted are these: Homo sapiens, PC-3; 48 h exposure, nuclei count; read-out: Cell Lines IC50 PC3. Here is the method: as §3
Another data set concerns NCI-H727. In words: Cell survival assay, NCI-H727. Particulars: Homo sapiens, 48 h exposure, nuclei count, read-out: Cell Lines IC50 NCI-H727. The data set is classed as cell-based. Here is the method: as §3
The subject of a further data set is Fibroblasts. In words: Cell survival assay, normal skin diploid fibroblasts. Format: cell-based. Particulars: Fibroblast; normal cells, 48 h exposure, nuclei count; read-out: Cell Lines IC50 Fibroblasts. Here is the method: as §3
The subject of another data set is HCT116. Put plainly: Cell survival assay, HCT116. The data set is classed as cell-based. Particulars: Homo sapiens, HCT-116. Here is the method: as §3
For the next data set, the system named is Caco2. Put plainly: Cell survival assay, Caco2. Format: cell-based. The conditions noted are these: Homo sapiens, Caco-2. The protocol: as §3
The target of data set [3] is T1, DYRK1A (Rattus norvegicus, UniProt Q63470).
T1 construct: GST; made in house; host or cells: Escherichia coli
Put plainly: DYRK1A kinase assay. Format: biochemical. The conditions noted are these: Table 4; 15 μM ATP. Here is the method: as §1
After 30-min incubation at 30 °C, the reaction was stopped by harvesting, using a FilterMate harvester (Packard), onto P81 phospho-cellulose papers (GE Healthcare, Chicago, IL, USA) which were washed in 1% phosphoric acid. Scintillation fluid was added and the radioactivity measured in a Packard counter. Blank values were subtracted and activities calculated as pmoles of phosphate incorporated for the 30-min incubation. The activities were expressed in % of the maximal activity, i.e., in the absence of inhibitors. Controls were performed with appropriate dilutions of DMSO. […]

The target of the next data set is T2, CDK5/p25 (Homo sapiens, UniProt Q00535).
T2 construct: made in house
T2 sequence (Q00535 whole entry): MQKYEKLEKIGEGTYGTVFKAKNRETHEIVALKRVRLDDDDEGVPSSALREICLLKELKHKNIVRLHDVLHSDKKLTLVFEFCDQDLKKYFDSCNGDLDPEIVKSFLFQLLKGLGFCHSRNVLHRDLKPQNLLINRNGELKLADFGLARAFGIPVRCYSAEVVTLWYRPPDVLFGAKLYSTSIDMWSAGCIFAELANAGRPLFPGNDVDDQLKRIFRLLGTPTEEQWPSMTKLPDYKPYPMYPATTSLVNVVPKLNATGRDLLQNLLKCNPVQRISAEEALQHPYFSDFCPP
T2 sequence (Q15078 99-307 partner limits assumed): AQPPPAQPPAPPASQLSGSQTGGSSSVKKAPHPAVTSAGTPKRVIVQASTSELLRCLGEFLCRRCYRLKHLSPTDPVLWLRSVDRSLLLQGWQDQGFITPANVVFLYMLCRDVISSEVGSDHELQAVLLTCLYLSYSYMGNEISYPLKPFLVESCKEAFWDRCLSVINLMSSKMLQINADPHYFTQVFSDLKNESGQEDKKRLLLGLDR
In words: CDK5/p25 kinase assay. The data set is classed as biochemical. Particulars: Table 4; 15 μM ATP. The protocol: as §1, §2
CDK5/p25 (human, recombinant) was prepared as previously described. […] ATP (3000 Ci/mmol; 10 mCi/mL) in a final volume of 30 μL. After 30-min incubation at 30 °C, 25 μL aliquots of supernatant were spotted onto 2.5 × 3 cm pieces of Whatman P81 phospho-cellulose paper, and, 20 s later, the filters were washed five times (for at least 5 min each time) in a solution of 10 mL phosphoric acid/litter of water. The wet filters were counted in the presence of 1 mL ACS (Amersham, UK) scintillation fluid.

Data set [4] relates to DYRK1A. Particulars: reported; cited from earlier work.
Data set [5] addresses Casein kinase 1 (CK1δ/ε). Particulars: read-out: IC50 CK1, positive control, cited from earlier work.
In data set [6] the test system is GSK-3α/β. The conditions noted are these: read-out: IC50 GSK3α/β, positive control, cited from earlier work.
[7] abbreviates: 48 h exposure, nuclei count, read-out: Cell Lines IC50 HCT116.
Where [8] appears, read: 48 h exposure, nuclei count, read-out: Cell Lines IC50 Caco2.
Setting [9] is: Table 5, same values as Table 4.

For the compound `O=C1NC(=S)S/C1=C\c1ccc2c(c1)OCO2` [Compound 3a, (5Z)-5-(1,3-Benzodioxol-5-ylmethylene)-2-thioxo-1,3-thiazolidin-4-one], the IC50 at GSK-3α/β [1] was 8.5 µM; on Casein kinase 1 (CK1δ/ε) [2] it was greater than 10 µM; in the data set on MDA-MB231 it was greater than 25 µM; with Huh7 D12 it was greater than 25 µM; in the data set with PC3, greater than 25 µM; with NCI-H727 it was greater than 25 µM. Besides, the IC50 in the data set with Fibroblasts is greater than 25 µM; in the data set on HCT116 (setting [7]), greater than 25 µM; in the data set with Caco2 (setting [8]), greater than 25 µM; against DYRK1A [3], 70 nM; on CDK5/p25 it was greater than 10 µM.

For `COc1ccc(/C=C2\SC(=S)NC2=O)cc1O` [Compound 3b, (5Z)-5-(3-Hydroxy-4-methoxybenzylidene)-2-thioxo-1,3-thiazolidin-4-one], the melting point was in the range of 222 to 224 °C. Also, the IC50 on GSK-3α/β [1] is greater than 10 µM. Moreover, the IC50 on Casein kinase 1 (CK1δ/ε) [2] was greater than 10 µM. The IC50 with MDA-MB231 is greater than 25 µM. Also, the IC50 in the data set with Huh7 D12 was greater than 25 µM. For the same compound, the IC50 with PC3 was greater than 25 µM. In the data set on NCI-H727, the IC50 is greater than 25 µM. In addition, in the data set with Fibroblasts, the IC50 is greater than 25 µM. Besides, the IC50 in the data set on HCT116 (setting [7]) is greater than 25 µM. Besides, the IC50 with Caco2 (setting [8]) was greater than 25 µM. Also, the IC50 against DYRK1A [3] amounted to 1400 nM. In addition, the IC50 against CDK5/p25 was greater than 10 µM.

Take `COc1cc(/C=C2\SC(=S)NC2=O)ccc1O` [Compound 3c, (5Z)-5-(4-Hydroxy-3-methoxybenzylidene)-2-thioxo-1,3-thiazolidin-4-one]: the IC50 is 8 µM at GSK-3α/β [1]; no less than 10 µM on Casein kinase 1 (CK1δ/ε) [2]; greater than 25 µM in the data set with MDA-MB231; greater than 25 µM in the data set on Huh7 D12; greater than 25 µM with PC3; greater than 25 µM in the data set on NCI-H727. Moreover, the IC50 is greater than 25 µM in the data set on Fibroblasts, 12 µM with HCT116 (setting [7]), greater than 25 µM in the data set with Caco2 (setting [8]) and 64 nM at DYRK1A [3].

In turn, `O=C1NC(=S)S/C1=C\c1ccc2c(c1)OCCO2` [Compound 3f, (5Z)-5-(2,3-Dihydro-1,4-benzodioxin-6-ylmethylene)-2-thioxo-1,3-thiazolidin-4-one] showed a melting point of 250 to 252 °C. The IC50 at GSK-3α/β [1] is no more than 10 µM. In addition, the IC50 on Casein kinase 1 (CK1δ/ε) [2] is greater than 10 µM. The IC50 in the data set on MDA-MB231 was greater than 25 µM. Further, in the data set with Huh7 D12, the IC50 was greater than 25 µM. Besides, the IC50 with PC3 was greater than 25 µM. Moreover, the IC50 in the data set on NCI-H727 is greater than 25 µM. For the same compound, the IC50 in the data set on Fibroblasts is greater than 25 µM. Besides, the IC50 in the data set on HCT116 (setting [7]) is greater than 25 µM. Moreover, the IC50 in the data set with Caco2 (setting [8]) was greater than 25 µM. The compound also displayed an IC50 against DYRK1A [3] of 56 nM. Besides, the IC50 against CDK5/p25 was greater than 10 µM.

The compound `O=C1NC(=S)S/C1=C\c1ccc2c(c1)CCO2` [Compound 3g, (5Z)-5-(2,3-Dihydro-benzofuran-5-ylmethylene)-2-thioxo-1,3-thiazolidin-4-one] gave a melting point of 250 to 252 °C. On GSK-3α/β [1], the IC50 was no less than 10 µM. For the same compound, the IC50 at Casein kinase 1 (CK1δ/ε) [2] is greater than 10 µM. Besides, the IC50 in the data set with MDA-MB231 was greater than 25 µM. The IC50 in the data set on Huh7 D12 is greater than 25 µM. For the same compound, in the data set on PC3, the IC50 is greater than 25 µM. In addition, the IC50 with NCI-H727 is greater than 25 µM. Also, the IC50 in the data set with Fibroblasts is greater than 25 µM. In the data set on HCT116 (setting [7]), the IC50 was greater than 25 µM. Also, in the data set with HCT116 (read-out: IC50 HCT 116), the IC50 turned out to be 6 µM. For the same compound, in the data set with Caco2 (setting [8]), the IC50 is greater than 25 µM. Moreover, the IC50 in the data set with Caco2 (read-out: IC50 Caco2) is 8 µM. On DYRK1A [3], this compound displayed an IC50 of 90 nM. The compound further yielded an IC50 against CDK5/p25 greater than 10 µM.

Consider `COc1ccc2c(c1)[nH]c1c(C)nccc12` [Harmine], for which the IC50 with DYRK1A [4] was […]; on Casein kinase 1 (CK1δ/ε) [5] (Table 4) it was 1500 nM; at Casein kinase 1 (CK1δ/ε) [5] (setting [9]), 1500 nM; with GSK-3α/β [6] (Table 4) it was greater than 10 µM; in the data set with GSK-3α/β [6] (setting [9]), greater than 10 µM.

(Values after publication PMC8623179, “Design and Microwave Synthesis of New (5Z) 5-Arylidene-2-thioxo-1,3-thiazolinidin-4-one and (5Z) 2-Amino-5-arylidene-1,3-thiazol-4(5H)-one as New Inhibitors of Protein Kinase DYRK1A” (Pharmaceuticals, 2021).)
